Source: patent US20230147835A1, “METHODS OF TREATING SYSTEMIC SCLEROSIS” (Horizon Therapeutics Ireland DAC, priority 2020, published 2023)
Entries after “also recorded” stand apart in the source; their conditions may differ.

Legend:
models of thrombosis [1] = assay: Acute models of coagulation and arterial thrombosis (rats); format: in vivo; details: two models in rats
Text: (§1) All these pathological events can be observed in SSc patients at different levels and further support the use of Compound 1 in these patients.

[2] = tested on: patients with early dcSSc; assay: Phase 2 8-week double-blind placebo-controlled study with 16-week open-label extension; format: in vivo, human
Text: The primary end point was safety during the double-blind phase of the trial. Exploratory end points included the identification of an LPA-induced gene signature in patients' skin.
Seventeen of 32 patients were randomly assigned to receive placebo and 15 to receive Compound 1. Thirty patients participated in the open-label extension study. […] At week 8, the reduction in MRSS was numerically greater in the Compound 1 group than in the placebo group (mean±SD change −3.57±4.18 versus −2.76±4.85; treatment effect −1.2 [95% confidence interval −4.37, 2.02]).

[3] = tested on: bleomycin-induced skin fibrosis; assay: Bleomycin-induced skin fibrosis model, therapeutic protocol; format: in vivo, mouse; details: 50 mg/kg/day
Text: (§2) Two models of skin fibrosis were used to evaluate the effect of Compound 1 in comparison with imatinib mesylate, used as a reference.

[4] = tested on: hypertension-induced or nephrotoxicity-induced renal failure; assay: Models of hypertension-induced or nephrotoxicity-induced renal failure; details: in vivo
Text: as §1

Phase 1 studies = format: in vivo; details: multiple Phase 1 studies
Text: See, Khanna, et al. (2007) Curr Rheumatol Rep. 9:151-7, which is incorporated herein by reference for all purposes.

[5] = tested on: presensitized mice treated with ovalbumin; assay: Broncho-alveolar lavage of presensitized mice treated with ovalbumin; details: mouse, in vivo
[6] = tested on: hypertension or diabetes-related cardiac hypertrophy, fibrosis and heart failure; assay: Models of hypertension or diabetes-related cardiac hypertrophy, fibrosis and heart failure; details: in vivo
Text: as §1

models of thrombosis [7] = assay: Model of thrombosis (mouse); format: in vivo; details: one model in mouse
Text: as §1

tight skin (Tsk-1) mice = assay: Tight skin (Tsk-1) mice skin fibrosis model; format: in vivo, mouse; details: 30 mg/kg/day; reference imatinib
Text: as §2

[8] = target: lysophosphatidic acid receptor 1 (LPAR1) (Homo sapiens, UniProt Q92633); details: cited from earlier work
[9] = 24-weeks of continuous treatment
[10] = Subjects switched from placebo to Compound 1 (16-week open label extension)
[11] = initial Compound 1 group, treatment up to 24 weeks, versus baseline

lysophosphatidic acid receptor 1 (LPAR1), sequence (Q92633 whole entry, species assumed): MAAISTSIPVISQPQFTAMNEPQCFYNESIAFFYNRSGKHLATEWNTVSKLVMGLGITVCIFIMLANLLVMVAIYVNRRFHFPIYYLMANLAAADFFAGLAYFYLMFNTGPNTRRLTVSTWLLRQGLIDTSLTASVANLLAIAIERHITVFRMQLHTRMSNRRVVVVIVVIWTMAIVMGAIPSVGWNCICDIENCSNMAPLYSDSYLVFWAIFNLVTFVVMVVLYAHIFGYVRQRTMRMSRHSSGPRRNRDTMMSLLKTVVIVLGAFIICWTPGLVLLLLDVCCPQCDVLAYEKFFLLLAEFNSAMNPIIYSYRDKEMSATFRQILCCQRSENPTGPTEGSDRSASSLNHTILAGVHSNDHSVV

## COc1ccc(C(=O)NC2(C(=O)O)Cc3ccccc3C2)cc1OCCc1cccc(C)c1 [Compound 1, 2-(4-methoxy-3-(3-methylphenethoxy)benzamido)-2,3-dihydro-1H-indene-2-carboxylic acid]
Models of thrombosis [1]
  antithrombotic activity: moderate but significant antithrombotic activity; also recorded: demonstrated antithrombotic activity
[2]; [9]
  Median Decrease in mRSS: −7.5
  Responder Rate: 78.6%
[2]; FIG. 1
  LPA-related genes, biomarker analysis of skin biopsies: reductions
[2]; Phase 2 double-blind phase and open label extension
  Modified Rodnan Skin Score (mRSS): improvement
[2]; [10]
  Median Decrease in mRSS: −7.0
  Responder Rate: 69.2%
[2]; blinded phase
  most frequent adverse events: headache, diarrhea, nausea, and falling
[2]; difference was not significant
  MRSS during the study: improved
[2]; in vivo
  tolerability in patients with dcSSc: well tolerated
[2]; [11]
  disease biomarker COMP: numerical improvement versus baseline
  disease biomarker TSP1: numerical improvement versus baseline
[2]; open-label extension
  safety profile: acceptable
[2]; week 8
  reduction of LPA-related genes in skin samples versus placebo: greater reduction
[2]; week 8, double-blind phase
  change in MRSS (mean±SD): −3.57±4.18
[2]; week 8, 95% confidence interval −4.37, 2.02
  treatment effect on MRSS versus placebo: −1.2
[2]; week 24
  HAQ-DI: clinically significant improvement
[3]; therapeutic protocol
  collagen content in mouse skin: able to reverse
  dermal thickness in mouse skin: able to reverse
  myofibroblast differentiation in mouse skin: able to reverse
[3]; reference imatinib mesylate
  effect on these markers compared with imatinib: comparable with the effects of imatinib
[4]
  kidney fibrosis: inhibits fibrosis
  kidney function: improved kidney function
Phase 1 studies
  safety and tolerability: safe and well tolerated
[5]
  accumulation of leukocytes and total inflammatory cells in broncho-alveolar lavage: significant inhibitory effect
  inflammation in a model of lung injury with predominant Th2-type response: reduces inflammation
[6]
  arterial stiffness: positive effect
  blood pressure: mostly unchanged
  cardiac function and structure: beneficial effect
  cardiac systolic and diastolic function: improves
  heart fibrosis: inhibits fibrosis
Models of thrombosis [7]
  antithrombotic activity: demonstrated antithrombotic activity
Tight skin (Tsk-1) mice
  progression of skin fibrosis: inhibit the progression of skin fibrosis at a similar level than imatinib
[8]
  antagonist of lysophosphatidic acid receptor 1 (LPAR1): potent antagonist
